Reference: US20200017496A1 (priority 2017, published 2020)
Read-outs that look alike come from different tables or passages of the source.

Tests used:
Experiment in all cases: MIC of compounds alone and combined with antibacterials, broth microdilution (CLSI)
Assay type in all cases: cell-based
[1] = test system: Providencia stuartii (PST) isolates
Procedure: (§1) Method 2: MIC of Compounds Alone and Combined with Antibacterials Against Bacterial Isolates.
(§2) Compounds of the present invention were assessed against genotyped bacterial strains (Table 3, 4) alone or in combination with an antibacterial (Table 2). […] Log phase bacterial suspensions were adjusted to a final density of 5·10^5 CFU/mL in cation-adjusted Mueller-Hinton broth (ca-MHB; Becton-Dickinson and Company) and added to each well (98 μL). Microplates were incubated for 16-20 h at 35° C. in ambient air. The MIC of the compounds was defined as the lowest concentration of said compounds that prevented bacterial growth as read by visual inspection. The MIC of ATB at each compound concentration was defined as the lowest concentration of ATB that prevented bacterial growth as read by visual inspection.

[2] = test system: Enterobacter aerogenes (EAE) isolates; conditions: for MIC: Klebsiella aerogenes
Procedure: as §1, §2

[3] = test system: Providencia rettgeri (PRE) isolates; conditions: for MIC: Providencia rettgeri, ATB alone; for MIC ATB in combination: strain PRE UFR236
Procedure: as §1, §2

[4] = test system: Salmonella typhimurium (STY) isolates
Procedure: as §1, §2

[5] = test system: Citrobacter freundii (CFR) isolates; conditions: for MIC: Citrobacter freundii, ATB alone, read-out: MIC
Procedure: as §1, §2

[6] = test system: Citrobacter koseri (CKR) isolates; conditions: for MIC: Citrobacter koseri, ATB alone, read-out: MIC
Procedure: as §1, §2

[7] = test system: Escherichia coli (ECO) isolates
Procedure: as §1, §2

CC(C)(O/N=C(\C(=O)N[C@@H]1C(=O)N2C(C(=O)[O-])=C(C[n+]3ccccc3)CS[C@H]12)c1csc(N)n1)C(=O)O [CAZ, Ceftazidime]
MIC ATB in combination ([1]; PST UFR94, AF1 @ 4 μg/mL): 0.5 µg/mL
MIC ATB in combination ([1]; PST UFR94, AF1 @ 8 μg/mL): <=0.25 μg/mL
MIC ATB in combination ([1]; PST UFR95, AF1 @ 4 μg/mL): 1 µg/mL
MIC ATB in combination ([1]; PST UFR95, AF1 @ 8 μg/mL): 0.5 µg/mL
MIC ATB in combination ([1]; PST UFR235, AF1 @ 4 μg/mL): 1 µg/mL
MIC ATB in combination ([1]; PST UFR235, AF1 @ 8 μg/mL): <=0.25 μg/mL
MIC ([1]; Providencia stuartii, strain PST UFR94 (CTX-M-14), ATB alone, read-out: MIC): 1 µg/mL
MIC ATB in combination ([2]; EAE 49469, AF1 @ 4 μg/mL): 8 µg/mL
MIC ATB in combination ([2]; EAE 49469, AF1 @ 8 μg/mL): 2 µg/mL
MIC ATB in combination ([2]; EAE 200261, AF1 @ 4 μg/mL): 2 µg/mL
MIC ATB in combination ([2]; EAE 200261, AF1 @ 8 μg/mL): 0.5 µg/mL
MIC ATB in combination ([2]; EAE UFR199, AF1 @ 4 μg/mL): 1 µg/mL
MIC ATB in combination ([2]; EAE UFR199, AF1 @ 8 μg/mL): 0.5 µg/mL
MIC ATB in combination ([2]; EAE UFR201, AF1 @ 4 μg/mL): 0.5 µg/mL
MIC ATB in combination ([2]; EAE UFR201, AF1 @ 8 μg/mL): <=0.25 μg/mL
MIC ATB in combination ([2]; EAE UFR202, AF1 @ 4 μg/mL): 2 µg/mL
MIC ATB in combination ([2]; EAE UFR202, AF1 @ 8 μg/mL): 1 µg/mL
MIC ATB in combination ([2]; EAE UFR213, AF1 @ 4 μg/mL): 0.5 µg/mL
MIC ATB in combination ([2]; EAE UFR213, AF1 @ 8 μg/mL): 0.5 µg/mL
MIC [2]: > 256 µg/mL
MIC ([2]; strain EAE UFR202 (TEM-24), ATB alone, read-out: MIC): > 256 µg/mL
MIC ([2]; strain EAE UFR213 (TEM-24), ATB alone, read-out: MIC): > 256 µg/mL
MIC ([3]; strain PRE UFR99 (OXA-1, OXA-181)): > 256 µg/mL
MIC ([3]; strain PRE UFR236 (TEM-1, OXA-48), read-out: MIC): 32 µg/mL
MIC ATB in combination ([3]; antibacterial combined with AF1 @ 4 μg/mL): 1 µg/mL
MIC ATB in combination ([3]; antibacterial combined with AF1 @ 8 μg/mL): 0.5 µg/mL
MIC ATB in combination [4]: <=0.25 μg/mL
MIC ATB in combination ([5]; CFR UFR10, AF1 @ 4 μg/mL): <=0.25 μg/mL
MIC ATB in combination ([5]; CFR UFR10, AF1 @ 8 μg/mL): <=0.25 μg/mL
MIC ATB in combination ([5]; CFR UFR11, AF1 @ 4 μg/mL): 8 µg/mL
MIC ATB in combination ([5]; CFR UFR11, AF1 @ 8 μg/mL): 0.5 µg/mL
MIC ATB in combination ([5]; CFR UFR83, AF1 @ 4 μg/mL): 32 µg/mL
MIC ATB in combination ([5]; CFR UFR83, AF1 @ 8 μg/mL): 8 µg/mL
MIC ATB in combination ([5]; CFR UFR146, AF1 @ 4 μg/mL): 4 µg/mL
MIC ATB in combination ([5]; CFR UFR146, AF1 @ 8 μg/mL): 2 µg/mL
MIC ATB in combination ([5]; CFR UFR248, AF1 @ 4 μg/mL): <=0.25 μg/mL
MIC ATB in combination ([5]; CFR UFR248, AF1 @ 8 μg/mL): <=0.25 μg/mL
MIC ATB in combination ([5]; CFR UFR249, AF1 @ 4 μg/mL): <=0.25 μg/mL
MIC ATB in combination ([5]; CFR UFR249, AF1 @ 8 μg/mL): <=0.25 μg/mL
MIC ATB in combination ([5]; CFR UFR250, AF1 @ 4 μg/mL): 0.5 µg/mL
MIC ATB in combination ([5]; CFR UFR250, AF1 @ 8 μg/mL): <=0.25 μg/mL
MIC ([5]; strain CFR UFR11 (TEM-1, OXA-1, OXA-48)): 8 µg/mL
MIC ([5]; strain CFR UFR146 (TEM-1, KPC-2)): 32 µg/mL
MIC ATB in combination ([5]; strain CFR UFR253, antibacterial combined with AF1 @ 4 μg/mL): 4 µg/mL
MIC ATB in combination ([5]; strain CFR UFR253, antibacterial combined with AF1 @ 8 μg/mL): 2 µg/mL
MIC ATB in combination ([5]; strain CFR UFR254, antibacterial combined with AF1 @ 4 μg/mL): 0.5 µg/mL
MIC ATB in combination ([5]; strain CFR UFR254, antibacterial combined with AF1 @ 8 μg/mL): <=0.25 μg/mL
MIC ATB in combination ([6]; CKO ROU, AF1 @ 4 μg/mL): <=0.25 μg/mL
MIC ATB in combination ([6]; CKO ROU, AF1 @ 8 μg/mL): <=0.25 μg/mL
MIC ATB in combination ([6]; CKO UFR149, AF1 @ 4 μg/mL): 0.5 µg/mL
MIC ATB in combination ([6]; CKO UFR149, AF1 @ 8 μg/mL): <=0.25 μg/mL
MIC ATB in combination ([6]; CKO UFR150, AF1 @ 4 μg/mL): 4 µg/mL
MIC ATB in combination ([6]; CKO UFR150, AF1 @ 8 μg/mL): 4 µg/mL
MIC ([6]; strain CKO ROU (TEM-1, SHV-12, CTX-M-15, OXA-1, OXA-48)): 1 µg/mL
MIC ([6]; strain CKO UFR150 (TEM-1, OXA-48)): 4 µg/mL
MIC ATB in combination ([7]; ECO 4133, AF1 @ 4 μg/mL): <=0.25 μg/mL
MIC ATB in combination ([7]; ECO 4133, AF1 @ 8 μg/mL): <=0.25 μg/mL
MIC ATB in combination ([7]; ECO 5302, AF1 @ 4 μg/mL): <=0.25 μg/mL
MIC ATB in combination ([7]; ECO 5302, AF1 @ 8 μg/mL): <=0.25 μg/mL
MIC ATB in combination ([7]; ECO 131119, AF1 @ 4 μg/mL): <=0.25 μg/mL
MIC ATB in combination ([7]; ECO 131119, AF1 @ 8 μg/mL): <=0.25 μg/mL
MIC ATB in combination ([7]; ECO 180070, AF1 @ 4 μg/mL): <=0.25 μg/mL
MIC ATB in combination ([7]; ECO 180070, AF1 @ 8 μg/mL): <=0.25 μg/mL
MIC ATB in combination ([7]; ECO 190314, AF1 @ 4 μg/mL): 0.5 µg/mL
MIC ATB in combination ([7]; ECO 190314, AF1 @ 8 μg/mL): <=0.25 μg/mL
MIC ATB in combination ([7]; ECO 190317, AF1 @ 8 μg/mL): <=0.25 μg/mL
MIC ATB in combination ([7]; ECO 190457, AF1 @ 4 μg/mL): <=0.25 μg/mL
MIC ATB in combination ([7]; ECO 190457, AF1 @ 8 μg/mL): <=0.25 μg/mL
MIC ATB in combination ([7]; ECO 190549, AF1 @ 4 μg/mL): <=0.25 μg/mL
MIC ATB in combination ([7]; ECO 190549, AF1 @ 8 μg/mL): <=0.25 μg/mL
MIC ATB in combination ([7]; ECO 200159, AF1 @ 4 μg/mL): <=0.25 μg/mL
MIC ATB in combination ([7]; ECO 200159, AF1 @ 8 μg/mL): <=0.25 μg/mL
MIC ATB in combination ([7]; ECO 200259, AF1 @ 4 μg/mL): <=0.25 μg/mL
MIC ATB in combination ([7]; ECO 200259, AF1 @ 8 μg/mL): <=0.25 μg/mL
MIC ATB in combination ([7]; ECO 200344, AF1 @ 4 μg/mL): <=0.25 μg/mL
MIC ATB in combination ([7]; ECO 200344, AF1 @ 8 μg/mL): <=0.25 μg/mL
MIC ATB in combination ([7]; ECO 260096, AF1 @ 4 μg/mL): <=0.25 μg/mL
MIC ATB in combination ([7]; ECO 260096, AF1 @ 8 μg/mL): <=0.25 μg/mL
MIC ATB in combination ([7]; ECO 260304, AF1 @ 4 μg/mL): <=0.25 μg/mL
MIC ATB in combination ([7]; ECO 260304, AF1 @ 8 μg/mL): <=0.25 μg/mL
MIC ATB in combination ([7]; ECO 260508, AF1 @ 4 μg/mL): <=0.25 μg/mL
MIC ATB in combination ([7]; ECO 260508, AF1 @ 8 μg/mL): <=0.25 μg/mL
MIC ATB in combination ([7]; ECO RGN238, AF1 @ 4 μg/mL): <=0.25 μg/mL
MIC ATB in combination ([7]; ECO RGN238, AF1 @ 8 μg/mL): <=0.25 μg/mL
MIC ATB in combination ([7]; ECO UFR15, AF1 @ 4 μg/mL): <=0.25 μg/mL
MIC ATB in combination ([7]; ECO UFR15, AF1 @ 8 μg/mL): <=0.25 μg/mL
MIC ATB in combination ([7]; ECO UFR16, AF1 @ 4 μg/mL): <=0.25 μg/mL
MIC ATB in combination ([7]; ECO UFR16, AF1 @ 8 μg/mL): <=0.25 μg/mL
MIC ATB in combination ([7]; ECO UFR17, AF1 @ 4 μg/mL): 16 µg/mL
MIC ATB in combination ([7]; ECO UFR17, AF1 @ 8 μg/mL): 2 µg/mL
MIC ATB in combination ([7]; ECO UFR18, AF1 @ 4 μg/mL): 1 µg/mL
MIC ATB in combination ([7]; ECO UFR18, AF1 @ 8 μg/mL): <=0.25 μg/mL
MIC ATB in combination ([7]; ECO UFR19, AF1 @ 4 μg/mL): 1 µg/mL
MIC ATB in combination ([7]; ECO UFR19, AF1 @ 8 μg/mL): <=0.25 μg/mL
